# Reference: PubChem BioAssay AID256 (DTP/NCI, 2004)
# Where “and” joins values, the source holds several entries; their conditions need not be identical. Identical values can stand only once. Toxic doses and inconclusive results are not listed.
# System: CD2F1 mice, L1210 leukemia ip, survival T/C
# Test: NCI In Vivo Anticancer Drug Screen. Data for tumor model L1210 Leukemia (intraperitoneal) in CD2F1 (CDF1) mice
# Conditions: higher = longer survival
# How it was run: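 Ratio T/C, where T is the treated-group value and C the vehicle-dosed control value, from mice implanted with a transplantable tumor.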
# [1] = endpoint: mean survival time, dose: 100.0 mg/kg/injection, schedule: Q04DX002 (ip), vehicle: saline with Tween-80
# [2] = endpoint: mean survival time, dose: 200.0 mg/kg/injection, schedule: Q04DX002 (ip), vehicle: saline with Tween-80
smiles,measurement,setting,value
CC12CCC3C(CCC4CC(OC(=O)Cc5ccc(N(CCCl)CCCl)cc5)CCC43C)C1CCC(=O)N2 (stereo unspecified),T/C,"endpoint: mean survival time, dose: 0.75 mg/kg/injection, schedule: Q01DX009 (ip), vehicle: saline with Tween-80",98 % of control
same,T/C,"endpoint: mean survival time, dose: 1.5 mg/kg/injection, schedule: Q01DX009 (ip), vehicle: saline with Tween-80",102 % of control
same,T/C,"endpoint: mean survival time, dose: 3.0 mg/kg/injection, schedule: Q01DX009 (ip), vehicle: saline with Tween-80",108 % of control
same,T/C,"endpoint: mean survival time, dose: 6.0 mg/kg/injection, schedule: Q01DX009 (ip), vehicle: saline with Tween-80",112 % of control
same,T/C,"endpoint: mean survival time, dose: 12.0 mg/kg/injection, schedule: Q01DX009 (ip), vehicle: saline with Tween-80",122 % of control
same,T/C,"endpoint: median survival time, dose: 3.0 mg/kg/injection, schedule: Q01DX009 (ip), vehicle: saline with Tween-80",115 % of control
same,T/C,"endpoint: median survival time, dose: 6.0 mg/kg/injection, schedule: Q01DX009 (ip), vehicle: saline with Tween-80",119 % of control
same,T/C,"endpoint: median survival time, dose: 24.0 mg/kg/injection, schedule: Q01DX009 (ip), vehicle: saline with Tween-80",166 % of control and 168 % of control
same,T/C,"endpoint: median survival time, dose: 48.0 mg/kg/injection, schedule: Q01DX009 (ip), vehicle: saline with Tween-80",98 % of control and 111 % of control
CCc1ccc(OC2OC(CO)C(OC3OC(CO)C(O)C(O)C3O)C(O)C2O)cc1 (stereo unspecified),T/C,"endpoint: mean survival time, dose: 75.0 mg/kg/injection, schedule: Q01DX001 (ip), vehicle: steriod suspending solution",92 % of control
same,T/C,"endpoint: mean survival time, dose: 150.0 mg/kg/injection, schedule: Q01DX001 (ip), vehicle: steriod suspending solution",92 % of control
same,T/C,"endpoint: mean survival time, dose: 300.0 mg/kg/injection, schedule: Q01DX001 (ip), vehicle: steriod suspending solution",95 % of control
CC(Nc1ccccc1)C(=O)N1CCC(Nc2ccccc2)CC1 (stereo unspecified),T/C,[1],94 % of control
same,T/C,[2],94 % of control
same,T/C,"endpoint: mean survival time, dose: 400.0 mg/kg/injection, schedule: Q04DX002 (ip), vehicle: saline with Tween-80",90 % of control
O=C(O)c1ccccc1Nc1ccc(Br)cc1,T/C,"endpoint: mean survival time, dose: 25.0 mg/kg/injection, schedule: Q04DX003 (ip), vehicle: saline with Tween-80",95 % of control
same,T/C,"endpoint: mean survival time, dose: 50.0 mg/kg/injection, schedule: Q04DX003 (ip), vehicle: saline with Tween-80",104 % of control
same,T/C,"endpoint: mean survival time, dose: 100.0 mg/kg/injection, schedule: Q04DX003 (ip), vehicle: saline with Tween-80",93 % of control and 112 % of control
same,T/C,"endpoint: mean survival time, dose: 200.0 mg/kg/injection, schedule: Q04DX003 (ip), vehicle: saline with Tween-80",98 % of control
CC1(Br)OC(=O)CC1Br (stereo unspecified),T/C,[1],106 % of control
same,T/C,[2],91 % of control
O=c1[nH]c2ccccc2c2ccccc2[nH]c(=O)c2ccccc12,T/C,"endpoint: mean survival time, dose: 100.0 mg/kg/injection, schedule: Q01DX001 (ip), vehicle: Klucel (hydroxypropylcellulose) (HPC)",98 % of control
same,T/C,"endpoint: mean survival time, dose: 200.0 mg/kg/injection, schedule: Q01DX001 (ip), vehicle: Klucel (hydroxypropylcellulose) (HPC)",102 % of control
same,T/C,"endpoint: mean survival time, dose: 400.0 mg/kg/injection, schedule: Q01DX001 (ip), vehicle: Klucel (hydroxypropylcellulose) (HPC)",102 % of control
COC(=O)CC(CC(=O)c1ccccc1)c1ccccc1 (stereo unspecified),T/C,"endpoint: mean survival time, dose: 50.0 mg/kg/injection, schedule: Q01DX009 (ip), vehicle: distilled water + Tween-80",94 % of control
same,T/C,"endpoint: mean survival time, dose: 50.0 mg/kg/injection, schedule: Q01DX009 (ip), vehicle: saline with Tween-80",95 % of control and 98 % of control
same,T/C,"endpoint: mean survival time, dose: 100.0 mg/kg/injection, schedule: Q01DX009 (ip), vehicle: distilled water + Tween-80",90 % of control
same,T/C,"endpoint: mean survival time, dose: 100.0 mg/kg/injection, schedule: Q01DX009 (ip), vehicle: saline with Tween-80",100 % of control and 106 % of control
same,T/C,"endpoint: mean survival time, dose: 200.0 mg/kg/injection, schedule: Q01DX009 (ip), vehicle: distilled water + Tween-80",90 % of control
same,T/C,"endpoint: mean survival time, dose: 200.0 mg/kg/injection, schedule: Q01DX009 (ip), vehicle: saline with Tween-80",97 % of control and 100 % of control
same,T/C,"endpoint: mean survival time, dose: 400.0 mg/kg/injection, schedule: Q01DX009 (ip), vehicle: distilled water + Tween-80",90 % of control
same,T/C,"endpoint: mean survival time, dose: 400.0 mg/kg/injection, schedule: Q01DX009 (ip), vehicle: saline with Tween-80",97 % of control and 98 % of control
C[C@]12C=CC(=O)C=C1CC[C@@H]1[C@@H]2C(=O)C[C@@]2(C)[C@H]1CC[C@]2(O)C(=O)CO,T/C,"endpoint: mean survival time, dose: 6.25 mg/kg/injection, schedule: Q03HX008 (ip), vehicle: saline",98 % of control
same,T/C,"endpoint: mean survival time, dose: 6.25 mg/kg/injection, schedule: Q03HX016 (ip), vehicle: saline",97 % of control
same,T/C,"endpoint: mean survival time, dose: 6.25 mg/kg/injection, schedule: Q03HX024 (ip), vehicle: saline",100 % of control
same,T/C,"endpoint: mean survival time, dose: 12.5 mg/kg/injection, schedule: Q03HX008 (ip), vehicle: saline",98 % of control
same,T/C,"endpoint: mean survival time, dose: 12.5 mg/kg/injection, schedule: Q03HX016 (ip), vehicle: saline",98 % of control
same,T/C,"endpoint: mean survival time, dose: 12.5 mg/kg/injection, schedule: Q03HX024 (ip), vehicle: saline",96 % of control
same,T/C,"endpoint: mean survival time, dose: 25.0 mg/kg/injection, schedule: Q01DX009 (ip), vehicle: saline",102 % of control
same,T/C,"endpoint: mean survival time, dose: 25.0 mg/kg/injection, schedule: Q03HX008 (ip), vehicle: saline",101 % of control
same,T/C,"endpoint: mean survival time, dose: 25.0 mg/kg/injection, schedule: Q03HX016 (ip), vehicle: saline",104 % of control
same,T/C,"endpoint: mean survival time, dose: 25.0 mg/kg/injection, schedule: Q03HX024 (ip), vehicle: saline",95 % of control
same,T/C,"endpoint: mean survival time, dose: 50.0 mg/kg/injection, schedule: Q01DX001 (ip), vehicle: saline",93 % of control
same,T/C,"endpoint: mean survival time, dose: 50.0 mg/kg/injection, schedule: Q01DX001 (oral), vehicle: saline",105 % of control
same,T/C,"endpoint: mean survival time, dose: 50.0 mg/kg/injection, schedule: Q01DX009 (ip), vehicle: saline",102 % of control
same,T/C,"endpoint: mean survival time, dose: 50.0 mg/kg/injection, schedule: Q01DX009 (oral), vehicle: saline",100 % of control
same,T/C,"endpoint: mean survival time, dose: 50.0 mg/kg/injection, schedule: Q03HX008 (ip), vehicle: saline",105 % of control
same,T/C,"endpoint: mean survival time, dose: 50.0 mg/kg/injection, schedule: Q03HX016 (ip), vehicle: saline",101 % of control
same,T/C,"endpoint: mean survival time, dose: 50.0 mg/kg/injection, schedule: Q03HX024 (ip), vehicle: saline",101 % of control
same,T/C,"endpoint: mean survival time, dose: 50.0 mg/kg/injection, schedule: Q04DX003 (ip), vehicle: saline",100 % of control
same,T/C,"endpoint: mean survival time, dose: 50.0 mg/kg/injection, schedule: Q08DX002 (ip), vehicle: saline",90 % of control
same,T/C,"endpoint: mean survival time, dose: 100.0 mg/kg/injection, schedule: Q01DX001 (ip), vehicle: saline",102 % of control
same,T/C,"endpoint: mean survival time, dose: 100.0 mg/kg/injection, schedule: Q01DX001 (oral), vehicle: saline",103 % of control
same,T/C,"endpoint: mean survival time, dose: 100.0 mg/kg/injection, schedule: Q01DX009 (ip), vehicle: saline",103 % of control
same,T/C,"endpoint: mean survival time, dose: 100.0 mg/kg/injection, schedule: Q01DX009 (oral), vehicle: saline",96 % of control
same,T/C,"endpoint: mean survival time, dose: 100.0 mg/kg/injection, schedule: Q01DX009 (sc), vehicle: steriod suspending solution",107 % of control
same,T/C,"endpoint: mean survival time, dose: 100.0 mg/kg/injection, schedule: Q03HX008 (ip), vehicle: saline",105 % of control
same,T/C,"endpoint: mean survival time, dose: 100.0 mg/kg/injection, schedule: Q03HX016 (ip), vehicle: saline",98 % of control
same,T/C,"endpoint: mean survival time, dose: 100.0 mg/kg/injection, schedule: Q03HX024 (ip), vehicle: saline",101 % of control
same,T/C,"endpoint: mean survival time, dose: 100.0 mg/kg/injection, schedule: Q04DX003 (ip), vehicle: saline",100 % of control
same,T/C,"endpoint: mean survival time, dose: 100.0 mg/kg/injection, schedule: Q08DX002 (ip), vehicle: saline",91 % of control
same,T/C,"endpoint: mean survival time, dose: 200.0 mg/kg/injection, schedule: Q01DX001 (ip), vehicle: saline",104 % of control
same,T/C,"endpoint: mean survival time, dose: 200.0 mg/kg/injection, schedule: Q01DX001 (oral), vehicle: saline",104 % of control
same,T/C,"endpoint: mean survival time, dose: 200.0 mg/kg/injection, schedule: Q01DX009 (ip), vehicle: saline",90 % of control
same,T/C,"endpoint: mean survival time, dose: 200.0 mg/kg/injection, schedule: Q01DX009 (oral), vehicle: saline",98 % of control
same,T/C,"endpoint: mean survival time, dose: 200.0 mg/kg/injection, schedule: Q01DX009 (sc), vehicle: steriod suspending solution",107 % of control
same,T/C,"endpoint: mean survival time, dose: 200.0 mg/kg/injection, schedule: Q04DX003 (ip), vehicle: saline",107 % of control
same,T/C,"endpoint: mean survival time, dose: 200.0 mg/kg/injection, schedule: Q08DX002 (ip), vehicle: saline",93 % of control
same,T/C,"endpoint: mean survival time, dose: 400.0 mg/kg/injection, schedule: Q01DX001 (ip), vehicle: saline",107 % of control
same,T/C,"endpoint: mean survival time, dose: 400.0 mg/kg/injection, schedule: Q01DX001 (oral), vehicle: saline",105 % of control
same,T/C,"endpoint: mean survival time, dose: 400.0 mg/kg/injection, schedule: Q01DX009 (ip), vehicle: saline",103 % of control
same,T/C,"endpoint: mean survival time, dose: 400.0 mg/kg/injection, schedule: Q01DX009 (oral), vehicle: saline",91 % of control
same,T/C,"endpoint: mean survival time, dose: 400.0 mg/kg/injection, schedule: Q01DX009 (sc), vehicle: steriod suspending solution",104 % of control
same,T/C,"endpoint: mean survival time, dose: 400.0 mg/kg/injection, schedule: Q04DX003 (ip), vehicle: saline",100 % of control
same,T/C,"endpoint: mean survival time, dose: 400.0 mg/kg/injection, schedule: Q08DX002 (ip), vehicle: saline",89 % of control
same,T/C,"endpoint: mean survival time, dose: 800.0 mg/kg/injection, schedule: Q01DX001 (ip), vehicle: saline",107 % of control
same,T/C,"endpoint: mean survival time, dose: 800.0 mg/kg/injection, schedule: Q01DX001 (oral), vehicle: saline",104 % of control
same,T/C,"endpoint: mean survival time, dose: 800.0 mg/kg/injection, schedule: Q01DX009 (oral), vehicle: saline",103 % of control
same,T/C,"endpoint: mean survival time, dose: 800.0 mg/kg/injection, schedule: Q01DX009 (sc), vehicle: steriod suspending solution",98 % of control
same,T/C,"endpoint: mean survival time, dose: 800.0 mg/kg/injection, schedule: Q04DX003 (ip), vehicle: saline",95 % of control
same,T/C,"endpoint: mean survival time, dose: 800.0 mg/kg/injection, schedule: Q08DX002 (ip), vehicle: saline",94 % of control
